The values below come from patent US12429423B2, “L-2-hydroxyglutarate biosensor based on specific transcriptional regulator and application thereof” (SHANDONG UNIVERSITY, priority 2020, dated 2025).

One experiment concerns HEK293FT cells. As to the kind of experiment: Detection of intracellular L-2-HG concentration in human cells. As to conditions: HEK293FT cells expressing the biosensor, permeabilized with 10 μM digitonin, L-2-HG added. The experiment is classed as cell-based. The method, then:
The above application was performed by optimizing and synthesizing the nucleotide sequences of LHGFR0N3C and LHGFR0N7C with mammalian codons, adding the kozark sequence, 5′-GCCACC-3′, before the start codon, and ligating it to the pcDNA3.1^(+) plasmid, then the obtained recombinant plasmids pcDNA3.1-LHGFR0N3C and pcDNA3.1-LHGFR0N7C were transfected into HEK293FT cells, respectively. Cells were trypsinized 48 h following transfection, and resuspended in 1× Hank's balanced salt solution supplemented with 20 mM HEPES. Digitonin at a concentration of 10 μM was used to induce cell permeabilization and deplete intracellular L-2-HG for in vivo response curves construction.
The nucleotide sequences of LHGFR0N3C and LHGFR0N7C were optimized for mammalian codons and synthesized by General Biosystem Co., Ltd (Anhui). […] In a black flat-bottomed 96-well plate, 90 μL of the treated cell suspension was mixed with 10 μL of gradient concentration of L-2-HG and the fluorescence intensity was read in a SpectraMax i3 fluorescence plate reader (Molecular Devices, USA). […] The fluorescence intensity of HEK293FT cells not expressing the L-2-HG biosensor was subtracted at each emission wavelength and the dose-response curve in human cells was plotted as the ratio of the corrected fluorescence intensity at 528 nm to the fluorescence intensity at 485 nm.
As for “LHGFR0N3C: L-2-HG biosensor: mTFP-LhgR-Venus fusion with C-terminal truncation of three amino acids of LhgR; SEQ ID NO. 3”, the “detection of intracellular L-2-HG (fluorescence emission ratio)” value is listed as “able to detect intracellular L-2-HG concentration in human cells”.

As for “LHGFR0N7C: L-2-HG biosensor: mTFP-LhgR-Venus fusion with C-terminal truncation of seven amino acids of LhgR; SEQ ID NO. 4”, the “detection of intracellular L-2-HG (fluorescence emission ratio)” value is given as “able to detect intracellular L-2-HG concentration in human cells”.

Another experiment has as its system LhgR binding to the lhgO promoter (F1). As to the kind of experiment: Electrophoretic mobility shift assays (EMSAs) to analyze the effectors of LhgR. More on the design: species or system Pseudomonas putida W619. As to conditions: 50 mM compound, 60 nM purified LhgR, 10 nM F1 fragment, 30° C. The source says: The above transcriptional regulator that specifically responds to L-2-hydroxyglutarate (L-2-HG) was obtained in the following way: • (1) analysis of the distribution of lhgO, the gene encoding a key enzyme for L-2-HG catabolism, in the genomes of different strains. A gene encoding a GntR family transcriptional regulator, lhgR, was found directly upstream of lhgO in the genome of Pseudomonas putida W619. lhgR gene was synthesized and cloned into pETDuet-1 vector, and the recombinant plasmid pETDuet-lhgR was introduced into an expression strain Escherichia coli BL21 (DE3), and then LhgR protein was obtained by induction of expression, isolation, and purification; • (2) electrophoretic mobility shift assays were performed to verify and determine the function of the above transcriptional regulator LhgR in Pseudomonas putida W619. Purified LhgR was incubated with different compounds (L-lysine, 5-aminovalerate, glutarate, D-2-HG, 2-ketoglutarate, and succinate), respectively, then the promoter fragment of lhgO was added. The effect on the binding ability of LhgR to the lhgO promoter fragment in the presence of different compounds was analyzed by electrophoretic separation, staining, and imaging.
Using the recombinant plasmid pETDuet-F2-lhgR-F1-lhgO as a template, the promoter region of lhgO (F1) was amplified by PCR using the synthetic primers. The F1 fragment and purified LhgR protein were diluted to 100 nM and 2000 nM using EMSA binding buffer, respectively. 18 μL of EMSA binding buffer containing 60 nM purified LhgR protein and 50 mM of different compounds was incubated for 15 min at 30° C., then 2 μL of F1 fragment at a final concentration of 10 nM was added and incubated for another 30 min at 30° C. 10 μL of the reaction mixture was electrophoresed on a 6% native polyacrylamide gels at 4° C. and 170 volts for approximately 45 minutes, followed by staining with SYBR green I and photographing.
The EMSA binding buffer formulation described in step (2) above was: 10 mM Tris-HCl, 50 mM KCl, 0.5 mM EDTA, 10% glycerol, and 1 mM dithiothreitol, adjusted to pH 7.4. The electrophoresis buffer formulation was: 89 mM Tris, 89 mM boric acid, 2 mM EDTA, adjusted to pH 8.3.
As for `O=C(O)CCC(=O)C(=O)O` [2-ketoglutarate], the “effect on the binding of LhgR to the lhgO promoter fragment (EMSA)” value (“effect on the binding of LhgR” for short) is recorded as “could not interfere with the binding of LhgR to DNA fragments”.

For the compound `NCCCCC(=O)O` [5-aminovalerate], the “effect on the binding of LhgR” value is recorded as “could not interfere with the binding of LhgR to DNA fragments”.

On to `O=C(O)CC[C@@H](O)C(=O)O` [D-2-HG], for which the “effect on the binding of LhgR” value was “could not interfere with the binding of LhgR to DNA fragments”.

Regarding `O=C(O)CC[C@H](O)C(=O)O` [L-2-HG, L-2-Hydroxyglutarate], the “effect on the binding of LhgR” value is reported as “inhibited the binding of LhgR to the lhgO promoter fragment”.

For `NCCCC[C@H](N)C(=O)O` [L-lysine], the “effect on the binding of LhgR” value was “could not interfere with the binding of LhgR to DNA fragments”.

Consider `O=C(O)CCC(=O)O` [succinate], for which the “effect on the binding of LhgR” value is “could not interfere with the binding of LhgR to DNA fragments”.

Another experiment concerns E. coli BL21(DE3). Kind of experiment: Real-time detection of intracellular L-2-HG concentration in bacteria. The experiment is classed as cell-based, Escherichia coli. As to conditions: carbon starvation-treated E. coli BL21(DE3) expressing the biosensor, L-2-HG added, 37° C., 5 min interval. The method, then:
The above application was performed by introducing the L-2-HG biosensor-encoding plasmid pETDuet-LHGFR0N3C into an expression strain E. coli BL21 (DE3), shaking the culture and then adding IPTG overnight to induce LHGFR0N3C expression, carbon starvation treatment in inorganic salt medium without carbon source for 8 h to remove intracellular L-2-HG, mixing 90 μL of carbon starvation-treated bacterial solution with 10 μL of gradient concentration of L-2-HG solution, the fluorescence emission intensity of mTFP and Venus and its ratio were measured continuously at 5-minute intervals by a fluorescence microplate reader, and the fluorescence emission ratio increased in response to the addition of L-2-HG, and there was a positive correlation between the change level of fluorescence emission ratio and the concentration of L-2-HG, which can be used as an indicator to achieve real-time detection of dynamic changes in intracellular L-2-HG concentration of bacteria.
The E. coli BL21(DE3)-pETDuet-LHGFR0N3C strain constructed in Example 3 was inoculated in 50 mL of LB medium containing ampicillin resistance and incubated at 37° C. with 180 rpm to an OD600 nm of approximately 0.6. Then, 1 mM IPTG was added, and LHGFR0N3C expression was induced at 16° C. with 160 rpm overnight. […] The fluorescence intensity was detected continuously by using an EnSight microplate reader (PerkinElmer, USA). […]
Regarding “LHGFR0N3C: L-2-HG biosensor: mTFP-LhgR-Venus fusion with C-terminal truncation of three amino acids of LhgR; SEQ ID NO. 3”, the “detection of intracellular L-2-HG dynamics (fluorescence emission ratio)” value is recorded as “able to detect dynamic changes in intracellular L-2-HG concentration of bacteria in real time”.
